Measured values as given in patent US12673939B2, “Methods of synthesis of heteroaryl derivatives of triazolyl acrylamides and crystalline forms” (Karyopharm Therapeutics Inc., priority 2021, dated 2026).

Assay: Dynamic vapor sorption (DVS) moisture sorption isotherm
Assay type: physicochemical
Conditions: reversible; from 0 to 90% RH; 25° C.
Procedure: The crystalline Form I provided can be additionally characterized by dynamic vapor sorption (DVS), wherein a sample is subjected to varying conditions of humidity and temperature, and the response of the sample is measured gravimetrically. The result of a DVS analysis particularly can be a dual curve providing sample weight percent as a function of relative humidity (RH) over time, a dual curve providing sample water content as a function of RH over time, a curve providing weight percent in relation to RH, or a curve providing water content in relation to RH. Equipment useful for measuring such data is known in the art, and any such equipment can be used to measure the compounds according to the present disclosure. In certain embodiments, DVS analysis can be carried out by scanning at a series of specific RH values. […]
Sorption isotherms were obtained using a SMS DVS Intrinsic moisture sorption analyser, controlled by DVS Intrinsic Control software v1.0.1.2 (or v 1.0.1.3). […] The relative humidity (RH) was measured by a calibrated Rotronic probe (dynamic range of 1.0-100% RH), located near the sample. The weight change, (mass relaxation) of the sample as a function of % RH was constantly monitored by the microbalance (accuracy±0.005 mg). […]
The sample was recovered after completion of the isotherm and re-analyzed by XRPD.

water adsorption (dynamic vapor sorption): 0.12 % w/w
Compound: NC(=O)/C(=C/n1cnc(-c2cc(C(F)(F)F)cc(C(F)(F)F)c2)n1)c1cncnc1 [Crystalline Form I, (E)-3-(3-(3,5-bis(trifluoromethyl)phenyl)-1H-1,2,4-triazol-1-yl)-2-(pyrimidin-5-yl)acrylamide]
